Measured values reported in the Kinase Knowledgebase extract (Sharma et al. 2016).

Molecular target: PIK3CG (human) (UniProt P48736)
Assay: Inhibition of PIK3CG Kinase Assay

Chain of PIK3CG (human) (P48736 whole entry, looked up): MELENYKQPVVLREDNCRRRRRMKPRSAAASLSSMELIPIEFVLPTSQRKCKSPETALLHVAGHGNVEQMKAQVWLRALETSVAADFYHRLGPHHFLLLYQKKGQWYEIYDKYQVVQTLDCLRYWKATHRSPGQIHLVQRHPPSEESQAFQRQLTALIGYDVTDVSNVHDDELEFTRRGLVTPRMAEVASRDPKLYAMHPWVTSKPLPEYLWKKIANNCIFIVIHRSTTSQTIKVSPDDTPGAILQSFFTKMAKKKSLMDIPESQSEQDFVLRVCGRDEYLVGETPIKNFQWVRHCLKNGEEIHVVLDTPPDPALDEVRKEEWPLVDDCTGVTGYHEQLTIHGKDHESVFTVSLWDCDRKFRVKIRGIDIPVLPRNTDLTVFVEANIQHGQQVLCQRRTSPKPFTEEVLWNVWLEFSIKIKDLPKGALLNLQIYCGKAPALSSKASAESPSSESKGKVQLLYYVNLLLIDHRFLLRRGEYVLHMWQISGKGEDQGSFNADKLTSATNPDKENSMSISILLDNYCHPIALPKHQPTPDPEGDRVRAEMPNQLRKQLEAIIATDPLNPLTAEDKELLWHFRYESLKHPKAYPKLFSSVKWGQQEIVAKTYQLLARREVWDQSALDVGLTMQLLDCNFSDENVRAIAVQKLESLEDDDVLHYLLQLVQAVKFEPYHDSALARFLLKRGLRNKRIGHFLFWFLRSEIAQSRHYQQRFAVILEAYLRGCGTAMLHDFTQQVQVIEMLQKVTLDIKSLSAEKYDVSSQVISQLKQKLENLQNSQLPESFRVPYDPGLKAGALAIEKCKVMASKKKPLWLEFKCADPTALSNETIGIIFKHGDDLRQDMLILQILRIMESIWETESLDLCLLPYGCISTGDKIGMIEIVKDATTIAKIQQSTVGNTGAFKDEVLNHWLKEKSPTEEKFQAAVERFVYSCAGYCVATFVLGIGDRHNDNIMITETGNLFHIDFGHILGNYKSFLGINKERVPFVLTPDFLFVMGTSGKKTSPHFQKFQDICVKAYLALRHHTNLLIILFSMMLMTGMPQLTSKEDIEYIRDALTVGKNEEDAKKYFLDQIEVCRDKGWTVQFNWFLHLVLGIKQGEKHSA

| IC50 [nM] | Compound |
| --- | --- |
| 100 to 500 | COc1cc(OC)c2c(c1)C1=NCCN1C(NC(=O)c1ccc(NC(C)=O)nc1)=N2 |
| 100 to 500 | O=C(NC1=Nc2cc(OCCOCCO)ccc2C2=NCCN12)c1cccnc1 |
| ≤ 100 | O=C(NC1=Nc2cc(N3CCOCC3)ccc2C2=NCCN12)c1cncc(O)c1 |
| ≤ 100 | COc1cc2c(c(OC)c1C)N=C(/C=C(\O)c1cccnc1)N1CCN=C21 |
| 500 to 2000 | NS(=O)(=O)c1ccc(C(=O)NC2=Nc3ccccc3C3=NCCN23)cc1 |
| 100 to 500 | O/C(=C\C1=Nc2cc(CN3CCOCC3)ccc2C2=NCCN12)c1cccnc1 |
| 100 to 500 | CCn1nc(C)cc1C(=O)NC1=Nc2ccccc2C2=NCCN12 |
| > 2000 | O=C(NC1=Nc2ccccc2C2=NCCN12)c1cccc([N+](=O)[O-])c1 |
| 500 to 2000 | Cc1cnc(C(=O)NC2=Nc3ccccc3C3=NCCN23)cn1 |
| ≤ 100 | COc1cccc2c1N=C(NC(=O)c1ccc3[nH]cnc3c1)N1CCN=C21 |
| ≤ 100 | CC(=O)Nc1ccc(/C(O)=C/C2=Nc3c(C)cccc3C3=NCCN23)cn1 |
| 100 to 500 | Cc1cc(C(=O)NC2=Nc3ccccc3C3=NCCN23)cnc1N |
| 100 to 500 | Cc1nc(N)ccc1C(=O)NC1=Nc2ccccc2C2=NCCN12 |
| ≤ 100 | COc1ccc2c(c1OC)N=C(/C=C(\O)c1cccnc1)N1CCN=C21 |
| ≤ 100 | COc1cccc2c1N=C(NC(=O)c1cccnc1Cl)N1CCN=C21 |
| ≤ 100 | COc1cc2c(c(OC)c1C)N=C(NC(=O)c1cccnc1C)N1CCN=C21 |
| 100 to 500 | CC(=O)Nc1ccc(/C(O)=C/C2=Nc3cc(N4CCN(C)CC4)ccc3C3=NCCN23)cn1 |
| 500 to 2000 | O=C(NC1=Nc2ccccc2C2=NCCN12)c1ccccn1 |
| 100 to 500 | Cc1nc2ccccn2c1C(=O)NC1=Nc2ccccc2C2=NCCN12 |
| ≤ 100 | COc1cccc2c1N=C(NC(=O)c1cc3cccnc3nc1C)N1CCN=C21 |
| ≤ 100 | Cc1ccc(C(=O)NC2=Nc3cc(N4CCOCC4)ccc3C3=NCCN23)cn1 |
| ≤ 100 | COc1c(OCCO)ccc2c1N=C(/C=C(\O)c1cccnc1)N1CCN=C21 |
| ≤ 100 | CC(=O)Nc1ccc(C(=O)NC2=Nc3ccccc3C3=NCCN23)cn1 |

| IC50 [nM] | Compound |
| --- | --- |
| ≤ 100 | O=C(NC1=Nc2c(F)cccc2C2=NCCN12)c1ccc2[nH]cnc2c1 |
| 100 to 500 | O/C(=C\C1=Nc2c(CN3CCOCC3)cccc2C2=NCCN12)c1cccnc1 |
| ≤ 100 | O=C(NC1=Nc2ccc(Cl)cc2C2=NCCN12)c1cccnc1 |
| 100 to 500 | COc1ccc2c(c1)N=C(NC(=O)c1cccnc1)N1CCN=C21 |
| ≤ 100 | Nc1ccc(C(=O)NC2=Nc3ccccc3C3=NCCN23)cn1 |
| 100 to 500 | Cc1cccc2c1N=C(/C=C(\O)c1cccnc1)N1CCN=C21 |
| 100 to 500 | O/C(=C\C1=Nc2ccccc2C2=NCCN12)c1ccncc1 |
| ≤ 100 | COc1cc(OC)c2c(c1)C1=NCCN1C(/C=C(\O)c1cccnc1)=N2 |
| ≤ 100 | CC(=O)Nc1ccc(/C(O)=C/C2=Nc3cc(N4CCOCC4)ccc3C3=NCCN23)cn1 |
| ≤ 100 | O=C(NC1=Nc2ccccc2C2=NCCN12)c1cncc(O)c1 |
| ≤ 100 | COc1c(OCC(=O)N(C)C)ccc2c1N=C(/C=C(\O)c1cccnc1)N1CCN=C21 |
| > 2000 | O=C(NC1=Nc2ccccc2C2=NCCN12)c1ccc([N+](=O)[O-])cc1 |
| 100 to 500 | O/C(=C\C1=Nc2cc(-c3ccccc3)ccc2C2=NCCN12)c1cccnc1 |
| ≤ 100 | O/C(=C\C1=Nc2cc(N3CCOCC3)ccc2C2=NCCN12)c1ccc2[nH]cnc2c1 |
| 100 to 500 | CC(=O)Nc1ccc(C(=O)NC2=Nc3cc(N4CCOCC4)ccc3C3=NCCN23)cc1 |
| 500 to 2000 | O=C(NC1=Nc2ccccc2C2=NCCN12)c1ccc(Cl)nc1 |
| 100 to 500 | COc1ccc2c(c1)C1=NCCN1C(/C=C(\O)c1cccnc1)=N2 |
| 100 to 500 | O=C(NC1=Nc2ccc(Br)cc2C2=NCCN12)c1cccnc1 |
| 100 to 500 | CN(C)C=Nc1cncc(C(=O)NC2=Nc3ccccc3C3=NCCN23)c1 |
| ≤ 100 | CC(=O)NC1CCN(c2ccc3c(c2)N=C(/C=C(\O)c2cccnc2)N2CCN=C32)C1 (stereo unspecified) |
| ≤ 100 | O/C(=C\C1=Nc2ccccc2C2=NCCN12)c1cccs1 |
| 100 to 500 | O=C(NC1=Nc2cc(Cl)ccc2C2=NCCN12)c1cccnc1 |
| 100 to 500 | O/C(=C\C1=Nc2ccccc2C2=NCCN12)c1ccno1 |

| IC50 [nM] | Compound |
| --- | --- |
| ≤ 100 | COc1ccc2c(c1OC)N=C(NC(=O)c1ccc3[nH]cnc3c1)N1CCN=C21 |
| 100 to 500 | O/C(=C\C1=Nc2cc(N3CCN(Cc4ccccc4)CC3)ccc2C2=NCCN12)c1cccnc1 |
| 100 to 500 | O/C(=C\C1=Nc2cc(Cl)ccc2C2=NCCN12)c1cccnc1 |
| 100 to 500 | O/C(=C\C1=Nc2c(cccc2C(F)(F)F)C2=NCCN12)c1cccnc1 |
| > 2000 | O=C(NC1=Nc2ccccc2C2=NCCN12)c1ccc(Cl)cc1 |
| > 2000 | O=C(NC1=Nc2ccccc2C2=NCCN12)c1csc([N+](=O)[O-])c1 |
| 100 to 500 | CNc1ccc(C(=O)NC2=Nc3ccccc3C3=NCCN23)cn1 |
| ≤ 100 | COc1ccc2c(c1OCCN1CCOCC1)N=C(/C=C(\O)c1cccnc1)N1CCN=C21 |
| ≤ 100 | COc1cc2c(c(OC)c1C)N=C(/C=C(\O)c1ccc(NC(C)=O)nc1)N1CCN=C21 |
| 500 to 2000 | O=C(NC1=Nc2ccccc2C2=NCCN12)c1cnccn1 |
| ≤ 100 | COc1c(C)ccc2c1N=C(/C=C(\O)c1ccc3[nH]cnc3c1)N1CCN=C21 |
| > 2000 | CN(C=O)c1ccc(C(=O)NC2=Nc3ccccc3C3=NCCN23)cc1 |
| ≤ 100 | COc1ccc2c(c1OC)N=C(NC(=O)c1cnc3[nH]cnc3c1)N1CCN=C21 |
| ≤ 100 | COc1cc2c(cc1OC)C1=NCCN1C(/C=C(\O)c1sc(C)nc1C)=N2 |
| > 2000 | O=C(NC1=Nc2ccccc2C2=NCCN12)c1csc(-c2ccncc2)n1 |
| > 2000 | O/C(=C\C1=Nc2ccccc2C2=NCCN12)c1csc2ccccc12 |
| ≤ 100 | O=C(NC1=Nc2c(cccc2C(F)(F)F)C2=NCCN12)c1ccc2[nH]cnc2c1 |
| 100 to 500 | O/C(=C\C1=Nc2ccc(Cl)cc2C2=NCCN12)c1cccnc1 |
| ≤ 100 | O=C(NC1=Nc2ccccc2C2=NCCN12)c1cnc2[nH]cnc2c1 |
| ≤ 100 | COc1ccc2c(c1Br)N=C(NC(=O)c1cccnc1)N1CCN=C21 |
| > 2000 | COc1cc(C(=O)NC2=Nc3ccccc3C3=NCCN23)cc(OC)c1C |
| 100 to 500 | COc1cc2c(cc1OC)C1=NCCN1C(/C=C(\O)c1cccs1)=N2 |
| > 2000 | COc1c(C)cc(C(=O)NC2=Nc3ccccc3C3=NCCN23)cc1C |

| IC50 [nM] | Compound |
| --- | --- |
| 100 to 500 | COc1cc2c(c(OC)c1C)N=C(/C=C(\O)c1ccc3[nH]cnc3c1)N1CCN=C21 |
| 100 to 500 | O=C(NC1=Nc2ccccc2C2=NCCN12)c1sccc1Cl |
| ≤ 100 | O=C(NC1=Nc2cc(Cl)ccc2C2=NCCN12)c1ccc2[nH]cnc2c1 |
| 100 to 500 | COc1cc2c(c(OC)c1C)N=C(NC(=O)c1ccc3[nH]cnc3c1)N1CCN=C21 |
| > 2000 | CCOC(=O)c1cc(C(=O)NC2=Nc3ccccc3C3=NCCN23)cc(C(=O)OCC)c1 |
| ≤ 100 | COc1cccc2c1N=C(NC(=O)c1cc3cccnc3nc1C(F)(F)F)N1CCN=C21 |
| > 2000 | NS(=O)(=O)c1ccc(C(=O)NC2=Nc3ccccc3C3=NCCN23)c(Cl)c1 |
| 100 to 500 | Cc1ccc2c(c1OCCN1CCOCC1)N=C(/C=C(\O)c1cccnc1)N1CCN=C21 |
| 100 to 500 | Cc1ccc2c(c1)N=C(NC(=O)c1cccs1)N1CCN=C21 |
| 500 to 2000 | O/C(=C\C1=Nc2ccccc2C2=NCCN12)c1ccccn1 |
| 100 to 500 | O/C(=C\C1=Nc2c(OCC3CC3)cccc2C2=NCCN12)c1cccnc1 |
| ≤ 100 | COc1cccc2c1N=C(/C=C(\O)c1cccnc1)N1CCN=C21 |
| 500 to 2000 | O=C(NC1=Nc2ccccc2C2=NCCN12)c1ccncc1 |
| > 2000 | O=C(NC1=Nc2ccccc2C2=NCCN12)c1csc(-c2cccnc2)n1 |
| 100 to 500 | Cc1ccc2c(c1)C1=NCCN1C(/C=C(\O)c1cccnc1)=N2 |
| 100 to 500 | O=C(O)CCc1ccc2c(n1)N=C(/C=C(\O)c1cccnc1)N1CCN=C21 |
| 100 to 500 | Cc1nc2ncccc2cc1C(=O)NC1=Nc2ccccc2C2=NCCN12 |
| 100 to 500 | O=C(NC1=Nc2ccccc2C2=NCCN12)c1ccsc1 |
| 100 to 500 | COc1cncc(C(=O)NC2=Nc3ccccc3C3=NCCN23)c1 |
| > 2000 | CSc1ccc(C(=O)NC2=Nc3ccccc3C3=NCCN23)cc1 |
| 100 to 500 | O/C(=C\C1=Nc2ccccc2C2=NCCN12)c1cnccn1 |
| 100 to 500 | O=C(NC1=Nc2cc(OCC(=O)N3CCOCC3)ccc2C2=NCCN12)c1cccnc1 |
| 100 to 500 | O/C(=C\C1=Nc2c(OCCN3CCOCC3)cccc2C2=NCCN12)c1cccnc1 |

| IC50 [nM] | Compound |
| --- | --- |
| 100 to 500 | Cc1ccc(/C(O)=C/C2=Nc3ccccc3C3=NCCN23)cn1 |
| 100 to 500 | C=Cc1ccc2c(c1)C1=NCCN1C(NC(=O)c1cccnc1)=N2 |
| 100 to 500 | Cc1ccncc1C(=O)NC1=Nc2ccccc2C2=NCCN12 |
| 100 to 500 | O=C(NC1=Nc2ccccc2C2=NCCN12)c1c[nH]cn1 |
| ≤ 100 | Cc1cccc2c1N=C(NC(=O)c1ccc3[nH]cnc3c1)N1CCN=C21 |
| > 2000 | O=C(NC1=Nc2ccccc2C2=NCCN12)c1ccc(-n2cccn2)cc1 |
| > 2000 | O=C(NC1=Nc2ccccc2C2=NCCN12)c1ccc([N+](=O)[O-])s1 |
| 100 to 500 | O=C(NC1=Nc2cc(OCCO)ccc2C2=NCCN12)c1cccnc1 |
| 100 to 500 | CC(=O)Nc1ccc(/C(O)=C/C2=Nc3c(CN4CCOCC4)cccc3C3=NCCN23)cn1 |
| ≤ 100 | COc1cc2c(cc1OC)C1=NCCN1C(NC(=O)c1ccc3[nH]cnc3c1)=N2 |
| 100 to 500 | O/C(=C\C1=Nc2ccccc2C2=NCCN12)c1ccco1 |
| ≤ 100 | COc1c(OCc2nn[nH]n2)ccc2c1N=C(/C=C(\O)c1cccnc1)N1CCN=C21 |
| 500 to 2000 | Cn1cccc1C(=O)NC1=Nc2ccccc2C2=NCCN12 |
| ≤ 100 | COc1cc(OC)c2c(c1)C1=NCCN1C(NC(=O)c1ccc3[nH]cnc3c1)=N2 |
| ≤ 100 | Cc1ccc(C(=O)NC2=Nc3ccccc3C3=NCCN23)cn1 |
| > 2000 | CN(C)c1cccc(C(=O)NC2=Nc3ccccc3C3=NCCN23)c1 |
| ≤ 100 | COc1c(C)ccc2c1N=C(/C=C(\O)c1ccc(NC(C)=O)nc1)N1CCN=C21 |
| ≤ 100 | COc1c(OCC(N)=O)ccc2c1N=C(/C=C(\O)c1cccnc1)N1CCN=C21 |
| ≤ 100 | COc1cc2c(cc1OC)C1=NCCN1C(/C=C(\O)c1ccc3[nH]cnc3c1)=N2 |
